From paper PMC3848336, “Aurora Isoform Selectivity: Design and Synthesis of Imidazo[4,5-b]pyridine Derivatives as Highly Selective Inhibitors of Aurora-A Kinase in Cells” (Journal of Medicinal Chemistry, 2013) come the findings set out here.

Common to all, as to experiment: Kinase selectivity profiling
Type in all cases: biochemical

Assay [1] has as its target CDK2-Cyclin A (Homo sapiens, UniProt P24941). The following applies: 110-kinase panel, read-out: % activity remaining, CDK22Cyclin A. The text has this: (§1) Compound 28c was profiled against a panel of 110 kinases at the International Centre for Protein Kinase Profiling, Division of Signal Transduction Therapy, University of Dundee. Compound 40f was profiled against a panel of 50 kinases (MRC-PPU Express Screen) also at the International Centre for Protein Kinase Profiling.

The target in assay [2] is MARK1 (Homo sapiens, UniProt Q9P0L2). The conditions noted are these: 110-kinase panel.
Sequence of MARK1 (Q9P0L2 whole entry): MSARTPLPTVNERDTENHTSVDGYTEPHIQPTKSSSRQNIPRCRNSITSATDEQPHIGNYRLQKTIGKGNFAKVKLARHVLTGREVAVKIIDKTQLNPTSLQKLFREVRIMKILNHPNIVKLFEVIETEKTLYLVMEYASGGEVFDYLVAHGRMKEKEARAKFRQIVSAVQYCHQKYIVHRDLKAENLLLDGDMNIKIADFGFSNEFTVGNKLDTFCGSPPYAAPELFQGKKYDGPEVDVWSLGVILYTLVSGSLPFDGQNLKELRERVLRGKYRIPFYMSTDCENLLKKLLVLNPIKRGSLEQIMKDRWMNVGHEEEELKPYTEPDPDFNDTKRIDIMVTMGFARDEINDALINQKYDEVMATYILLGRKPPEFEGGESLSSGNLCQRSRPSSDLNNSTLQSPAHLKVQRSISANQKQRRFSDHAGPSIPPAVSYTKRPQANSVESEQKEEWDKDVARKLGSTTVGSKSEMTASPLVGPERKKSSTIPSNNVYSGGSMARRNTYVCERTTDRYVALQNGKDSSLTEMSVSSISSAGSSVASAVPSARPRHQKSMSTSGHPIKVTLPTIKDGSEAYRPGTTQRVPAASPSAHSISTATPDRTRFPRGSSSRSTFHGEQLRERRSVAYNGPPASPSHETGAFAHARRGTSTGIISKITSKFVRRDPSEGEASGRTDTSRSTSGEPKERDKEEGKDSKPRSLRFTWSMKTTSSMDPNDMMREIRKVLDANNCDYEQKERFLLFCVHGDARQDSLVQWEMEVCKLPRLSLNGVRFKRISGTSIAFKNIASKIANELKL
From the text: as §1

Assay [3] deals with MARK2 (Homo sapiens, UniProt Q7KZI7). The conditions noted are these: 110-kinase panel.
Sequence of MARK2 (Q7KZI7 whole entry): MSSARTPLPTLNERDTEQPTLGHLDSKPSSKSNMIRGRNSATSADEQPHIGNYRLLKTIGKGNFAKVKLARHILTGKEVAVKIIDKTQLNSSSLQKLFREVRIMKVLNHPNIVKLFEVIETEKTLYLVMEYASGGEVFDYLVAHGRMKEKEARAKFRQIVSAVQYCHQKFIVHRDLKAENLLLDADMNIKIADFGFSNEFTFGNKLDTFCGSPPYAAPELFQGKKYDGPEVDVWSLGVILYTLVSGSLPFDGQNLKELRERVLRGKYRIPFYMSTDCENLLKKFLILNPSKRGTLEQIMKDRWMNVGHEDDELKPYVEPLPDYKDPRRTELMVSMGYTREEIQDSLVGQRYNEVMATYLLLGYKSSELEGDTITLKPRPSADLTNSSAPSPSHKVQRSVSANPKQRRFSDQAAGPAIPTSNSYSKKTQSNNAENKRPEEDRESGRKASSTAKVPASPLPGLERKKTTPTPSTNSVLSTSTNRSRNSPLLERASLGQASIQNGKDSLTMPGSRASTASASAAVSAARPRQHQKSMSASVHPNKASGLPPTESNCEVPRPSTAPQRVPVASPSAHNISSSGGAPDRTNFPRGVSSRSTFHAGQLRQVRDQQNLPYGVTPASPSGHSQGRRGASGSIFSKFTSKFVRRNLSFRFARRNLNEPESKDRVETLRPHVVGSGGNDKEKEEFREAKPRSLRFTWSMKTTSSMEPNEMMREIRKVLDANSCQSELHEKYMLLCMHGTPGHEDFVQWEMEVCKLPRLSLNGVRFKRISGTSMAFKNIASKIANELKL
From the text: as §1

Assay [4] addresses MST4 (Homo sapiens, UniProt Q9P289). The following applies: 110-kinase panel.
From the text: as §1

Each structure is given as a SMILES string.

Sequence of MST4 (Q9P289 whole entry): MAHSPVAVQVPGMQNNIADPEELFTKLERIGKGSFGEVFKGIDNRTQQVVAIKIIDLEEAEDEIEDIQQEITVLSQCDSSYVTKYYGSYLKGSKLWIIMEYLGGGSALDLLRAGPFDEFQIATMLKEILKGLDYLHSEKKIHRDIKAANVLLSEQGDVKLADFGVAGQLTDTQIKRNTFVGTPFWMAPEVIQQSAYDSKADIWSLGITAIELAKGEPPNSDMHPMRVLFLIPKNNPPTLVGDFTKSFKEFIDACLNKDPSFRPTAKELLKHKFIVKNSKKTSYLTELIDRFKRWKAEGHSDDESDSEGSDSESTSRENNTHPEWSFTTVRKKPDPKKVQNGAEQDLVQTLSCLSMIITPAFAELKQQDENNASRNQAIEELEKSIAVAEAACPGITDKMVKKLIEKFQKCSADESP

As usually defined, the remaining activity is the signal under treatment as a percentage of the control signal. On to `Cc1nn(C)cc1-c1nc2c(Oc3ccc(C(=O)Nc4ccccc4)cc3)c(Cl)cnc2[nH]1` [compound 28c, 4-((6-Chloro-2-(1,3-dimethyl-1H-pyrazol-4-yl)-3H-imidazo[4,5-b]pyridin-7-yl)oxy)-N-phenylbenzamide], for which the remaining activity at 1 µM in assay [1] amounted to 58%; in assay [2] it was 103%; in assay [3], 104%; in assay [4] it was 115%.
